Assays:
Experiment in all cases: relative viability vs DMSO control (72 h) (fraction); higher = more viable cells
SW1353 = test system: SW1353
Outline: (§1)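 After seeding at densities set for 80–90% confluence in 384-well plates, sarcoma cell lines waited 24 h before 2.5 µl of serially diluted compound was added. Source plates held 10 mM down to 0.0002 mM. Plates were incubated 72 h at 37 °C with 5% CO2, with 0.1% DMSO vehicle and a 5 µM positive control, and relative viability was taken from ATPLite as percent growth averaged over up to triplicate wells, with 1 set as full and 0 as none.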

SK-LMS-1 = test system: SK-LMS-1
Outline: as §1

RD = test system: RD
Outline: as §1

KHOS-240S = test system: KHOS-240S
Outline: as §1

SW872 = test system: SW872
Outline: as §1

G401 = test system: G401
Outline: as §1

HS729 = test system: HS729
Outline: as §1

RD-ES = test system: RD-ES
Outline: as §1

SW684 = test system: SW684
Outline: as §1

SYO-1 = test system: SYO-1
Outline: as §1

KHOS-NP = test system: KHOS-NP
Outline: as §1

HT1080 = test system: HT1080
Outline: as §1

CNC(=O)c1cc(Oc2ccc(NC(=O)Nc3ccc(Cl)c(C(F)(F)F)c3)cc2)ccn1 [Sorafenib]
Conditions	relative viability
G401, 0.00017 µM	0.997
G401, 0.00051 µM	1
G401, 0.00152 µM	1.01
G401, 0.00457 µM	1.01
G401, 0.01372 µM	1.04
G401, 0.04115 µM	1.01
G401, 0.1235 µM	1.02
G401, 0.3704 µM	0.988
G401, 1.111 µM	0.893
G401, 3.333 µM	0.684
G401, 10 µM	0.147
HS729, 0.00017 µM	0.948
HS729, 0.00051 µM	0.966
HS729, 0.00152 µM	0.939
HS729, 0.00457 µM	0.978
HS729, 0.01372 µM	0.946
HS729, 0.04115 µM	1.02
HS729, 0.1235 µM	0.937
HS729, 0.3704 µM	0.85
HS729, 1.111 µM	0.858
HS729, 3.333 µM	0.811
HS729, 10 µM	0.624
HT1080, 0.00017 µM	1.06
HT1080, 0.00051 µM	1.06
HT1080, 0.00152 µM	1.1
HT1080, 0.00457 µM	1.08
HT1080, 0.01372 µM	1.07
HT1080, 0.04115 µM	1.07
HT1080, 0.1235 µM	1.08
HT1080, 0.3704 µM	1.12
HT1080, 1.111 µM	1.102
HT1080, 3.333 µM	0.94
HT1080, 10 µM	0.0932
KHOS-240S, 0.00017 µM	1.04
KHOS-240S, 0.00051 µM	1.07
KHOS-240S, 0.00152 µM	1.09
KHOS-240S, 0.00457 µM	1.08
KHOS-240S, 0.01372 µM	1.06
KHOS-240S, 0.04115 µM	1.08
KHOS-240S, 0.1235 µM	1.08
KHOS-240S, 0.3704 µM	1.11
KHOS-240S, 1.111 µM	1.05
KHOS-240S, 3.333 µM	0.728
KHOS-240S, 10 µM	0.309
KHOS-NP, 0.00017 µM	1.09
KHOS-NP, 0.00051 µM	1.09
KHOS-NP, 0.00152 µM	1.1
KHOS-NP, 0.00457 µM	1.09
KHOS-NP, 0.01372 µM	1.08
KHOS-NP, 0.04115 µM	1.1
KHOS-NP, 0.1235 µM	1.103
KHOS-NP, 0.3704 µM	1.08
KHOS-NP, 1.111 µM	0.993
KHOS-NP, 3.333 µM	0.534
KHOS-NP, 10 µM	0.375
RD, 0.00017 µM	1.11
RD, 0.00051 µM	1.11
RD, 0.00152 µM	1.09
RD, 0.00457 µM	1.12
RD, 0.01372 µM	1.09
RD, 0.04115 µM	1.12
RD, 0.1235 µM	1.14
RD, 0.3704 µM	1.13
RD, 1.111 µM	1.04
RD, 3.333 µM	0.9
RD, 10 µM	0.504
RD-ES, 0.00017 µM	0.972
RD-ES, 0.00051 µM	0.98
RD-ES, 0.00152 µM	0.963
RD-ES, 0.00457 µM	0.992
RD-ES, 0.01372 µM	1
RD-ES, 0.04115 µM	0.987
RD-ES, 0.1235 µM	0.987
RD-ES, 0.3704 µM	0.992
RD-ES, 1.111 µM	0.994
RD-ES, 3.333 µM	0.903
RD-ES, 10 µM	0.274
SK-LMS-1, 0.00017 µM	1.1
SK-LMS-1, 0.00051 µM	1.07
SK-LMS-1, 0.00152 µM	1.11
SK-LMS-1, 0.00457 µM	1.1
SK-LMS-1, 0.01372 µM	1.1
SK-LMS-1, 0.04115 µM	1.12
SK-LMS-1, 0.1235 µM	1.05
SK-LMS-1, 0.3704 µM	1.09
SK-LMS-1, 1.111 µM	1.07
SK-LMS-1, 3.333 µM	0.713
SK-LMS-1, 10 µM	0.0735
SW684, 0.00017 µM	1.2
SW684, 0.00051 µM	1.2
SW684, 0.00152 µM	1.18
SW684, 0.00457 µM	1.19
SW684, 0.01372 µM	1.16
SW684, 0.04115 µM	1.2
SW684, 0.1235 µM	1.23
SW684, 0.3704 µM	1.27
SW684, 1.111 µM	1.32
SW684, 3.333 µM	0.938
SW684, 10 µM	0.276
SW872, 0.00017 µM	1.09
SW872, 0.00051 µM	1.09
SW872, 0.00152 µM	1.05
SW872, 0.00457 µM	1.06
SW872, 0.01372 µM	1.09
SW872, 0.04115 µM	1.09
SW872, 0.1235 µM	1.07
SW872, 0.3704 µM	1.09
SW872, 1.111 µM	1.07
SW872, 3.333 µM	1.02
SW872, 10 µM	0.553
SW1353, 0.00017 µM	0.98
SW1353, 0.00051 µM	1.02
SW1353, 0.00152 µM	1.01
SW1353, 0.00457 µM	1.01
SW1353, 0.01372 µM	1.01
SW1353, 0.04115 µM	1.01
SW1353, 0.1235 µM	0.992
SW1353, 0.3704 µM	1.02
SW1353, 1.111 µM	1.04
SW1353, 3.333 µM	0.85
SW1353, 10 µM	0.39
SYO-1, 0.00017 µM	0.968
SYO-1, 0.00051 µM	0.967
SYO-1, 0.00152 µM	0.96
SYO-1, 0.00457 µM	0.95
SYO-1, 0.01372 µM	0.948
SYO-1, 0.04115 µM	0.944
SYO-1, 0.1235 µM	0.916
SYO-1, 0.3704 µM	0.773
SYO-1, 1.111 µM	0.626
SYO-1, 3.333 µM	0.509
SYO-1, 10 µM	0.137

CCN(c1cc(-c2ccc(CN3CCOCC3)cc2)cc(C(=O)NCc2c(C)cc(C)[nH]c2=O)c1C)C1CCOCC1 [Tazemetostat]
Conditions	relative viability
G401, 0.00017 µM	1.03
G401, 0.00051 µM	1.01
G401, 0.00152 µM	1
G401, 0.00457 µM	1.049
G401, 0.01372 µM	1.05
G401, 0.04115 µM	1.04
G401, 0.1235 µM	1
G401, 0.3704 µM	0.999
G401, 1.111 µM	1.01
G401, 3.333 µM	1.02
G401, 10 µM	1.01
HS729, 0.00017 µM	1.04
HS729, 0.00051 µM	1.05
HS729, 0.00152 µM	1.03
HS729, 0.00457 µM	1.05
HS729, 0.01372 µM	1.04
HS729, 0.04115 µM	1.01
HS729, 0.1235 µM	0.98
HS729, 0.3704 µM	1
HS729, 1.111 µM	0.938
HS729, 3.333 µM	0.932
HS729, 10 µM	0.892
HT1080, 0.00017 µM	1.09
HT1080, 0.00051 µM	1.1
HT1080, 0.00152 µM	1.08
HT1080, 0.00457 µM	1.09
HT1080, 0.01372 µM	1.085
HT1080, 0.04115 µM	1.07
HT1080, 0.1235 µM	1.09
HT1080, 0.3704 µM	1.1
HT1080, 1.111 µM	1.071
HT1080, 3.333 µM	1.08
HT1080, 10 µM	1.01
KHOS-240S, 0.00017 µM	1.02
KHOS-240S, 0.00051 µM	1.031
KHOS-240S, 0.00152 µM	1.03
KHOS-240S, 0.00457 µM	1.03
KHOS-240S, 0.01372 µM	1.01
KHOS-240S, 0.04115 µM	1.03
KHOS-240S, 0.1235 µM	1.01
KHOS-240S, 0.3704 µM	0.9861
KHOS-240S, 1.111 µM	0.9866
KHOS-240S, 3.333 µM	0.975
KHOS-240S, 10 µM	0.925
KHOS-NP, 0.00017 µM	1.05
KHOS-NP, 0.00051 µM	1.06
KHOS-NP, 0.00152 µM	1.06
KHOS-NP, 0.00457 µM	1.07
KHOS-NP, 0.01372 µM	1.04
KHOS-NP, 0.04115 µM	1.04
KHOS-NP, 0.1235 µM	1.015
KHOS-NP, 0.3704 µM	0.997
KHOS-NP, 1.111 µM	0.98
KHOS-NP, 3.333 µM	0.998
KHOS-NP, 10 µM	0.934
RD, 0.00017 µM	0.988
RD, 0.00051 µM	1
RD, 0.00152 µM	1.04
RD, 0.00457 µM	1.04
RD, 0.01372 µM	1.05
RD, 0.04115 µM	1.03
RD, 0.1235 µM	1.06
RD, 0.3704 µM	1.03
RD, 1.111 µM	1.04
RD, 3.333 µM	1.04
RD, 10 µM	1.03
RD-ES, 0.00017 µM	0.984
RD-ES, 0.00051 µM	1
RD-ES, 0.00152 µM	0.989
RD-ES, 0.00457 µM	0.965
RD-ES, 0.01372 µM	0.968
RD-ES, 0.04115 µM	1.01
RD-ES, 0.1235 µM	0.975
RD-ES, 0.3704 µM	0.971
RD-ES, 1.111 µM	1
RD-ES, 3.333 µM	0.988
RD-ES, 10 µM	0.98
SK-LMS-1, 0.00017 µM	0.996
SK-LMS-1, 0.00051 µM	1.02
SK-LMS-1, 0.00152 µM	0.981
SK-LMS-1, 0.00457 µM	1
SK-LMS-1, 0.01372 µM	0.997
SK-LMS-1, 0.04115 µM	1.03
SK-LMS-1, 0.1235 µM	0.969
SK-LMS-1, 0.3704 µM	0.9897
SK-LMS-1, 1.111 µM	0.976
SK-LMS-1, 3.333 µM	0.969
SK-LMS-1, 10 µM	0.938
SW684, 0.00017 µM	1.05
SW684, 0.00051 µM	1.092
SW684, 0.00152 µM	1.11
SW684, 0.00457 µM	1.1
SW684, 0.01372 µM	1.12
SW684, 0.04115 µM	1.12
SW684, 0.1235 µM	1.12
SW684, 0.3704 µM	1.11
SW684, 1.111 µM	1.12
SW684, 3.333 µM	1.14
SW684, 10 µM	1.1
SW872, 0.00017 µM	1.04
SW872, 0.00051 µM	1.07
SW872, 0.00152 µM	1.07
SW872, 0.00457 µM	1.072
SW872, 0.01372 µM	1.066
SW872, 0.04115 µM	1.08
SW872, 0.1235 µM	1.05
SW872, 0.3704 µM	1.06
SW872, 1.111 µM	1.02
SW872, 3.333 µM	1.03
SW872, 10 µM	1.02
SW1353, 0.00017 µM	1.08
SW1353, 0.00051 µM	1.04
SW1353, 0.00152 µM	1.065
SW1353, 0.00457 µM	1.08
SW1353, 0.01372 µM	1.05
SW1353, 0.04115 µM	1.09
SW1353, 0.1235 µM	1.05
SW1353, 0.3704 µM	1.04
SW1353, 1.111 µM	1.02
SW1353, 3.333 µM	1.02
SW1353, 10 µM	0.991
SYO-1, 0.00017 µM	1.03
SYO-1, 0.00051 µM	1
SYO-1, 0.00152 µM	1.02
SYO-1, 0.00457 µM	1
SYO-1, 0.01372 µM	0.994
SYO-1, 0.04115 µM	1.006
SYO-1, 0.1235 µM	1
SYO-1, 0.3704 µM	0.95
SYO-1, 1.111 µM	0.953
SYO-1, 3.333 µM	0.915
SYO-1, 10 µM	0.873
